Among the data in patent US8957064B2, “Fused pyrimidines” (Bayer Intellectual Property GmbH, priority 2009, dated 2015) are IC50 and melting point values, retold here.

Structures are written as SMILES.

The target in series [1] is His-tagged human recombinant kinase full-length Akt1 (Homo sapiens (Human), UniProt P31749). Kind of series: Akt1 kinase assay (Akt1 TR-FRET assay, Biological Assay 1.0). In kind it is biochemical. Particulars: 10 μM ATP, 1 μM biotinylated peptide substrate, 60 min at 22° C. In a few lines:
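Insect-cell-expressed full-length His-Akt1 (~0.05 ng/μl) preincubated 15 min with compound, then reacted 60 min at 22 °C with 10 μM ATP and 1 μM biotinylated peptide (final), pH 7.5. Phosphopeptide detected by HTRF (665/620 nm ratio). Data normalised to no-inhibitor and no-enzyme controls.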
A general note: Time-resolved FRET reads energy transfer from a long-lived donor to a nearby acceptor.

Series [2] concerns the target His-tagged human recombinant kinase full-length Akt2 activated by PDK1 (Homo sapiens (Human), UniProt P31751). The experiment in a line: Akt2 kinase assay (Akt2 TR-FRET assay, Biological Assay 2.0). In kind it is biochemical. Particulars: 10 μM ATP, 1 μM biotinylated peptide substrate, 60 min at 22° C. In a few lines:
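Compound was pre-incubated with enzyme (~0.2 ng/µl final) for 15 min at 22 °C in Tris pH 7.5, 5 mM MgCl2, then reacted 60 min with 10 µM ATP and 1 µM biotinylated peptide. Phosphopeptide was detected by TR-FRET (665/622 nm ratio). Data were normalised to no-inhibitor (0%) and no-enzyme (100%) controls.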

Chain of His-tagged human recombinant kinase full-length Akt1 (P31749 whole entry): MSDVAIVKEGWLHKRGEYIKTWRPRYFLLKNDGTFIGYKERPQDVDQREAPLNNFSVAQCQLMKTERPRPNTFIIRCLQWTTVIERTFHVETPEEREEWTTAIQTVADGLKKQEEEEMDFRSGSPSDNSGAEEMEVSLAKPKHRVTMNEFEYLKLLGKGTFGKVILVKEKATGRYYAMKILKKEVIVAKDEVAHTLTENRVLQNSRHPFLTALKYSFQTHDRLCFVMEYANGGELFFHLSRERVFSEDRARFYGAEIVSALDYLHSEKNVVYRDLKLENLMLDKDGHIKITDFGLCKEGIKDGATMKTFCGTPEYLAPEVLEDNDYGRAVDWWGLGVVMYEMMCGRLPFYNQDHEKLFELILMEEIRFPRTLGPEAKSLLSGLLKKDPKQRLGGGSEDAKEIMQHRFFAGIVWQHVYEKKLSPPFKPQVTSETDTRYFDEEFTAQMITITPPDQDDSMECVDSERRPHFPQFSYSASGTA
Chain of His-tagged human recombinant kinase full-length Akt2 activated by PDK1 (P31751 whole entry): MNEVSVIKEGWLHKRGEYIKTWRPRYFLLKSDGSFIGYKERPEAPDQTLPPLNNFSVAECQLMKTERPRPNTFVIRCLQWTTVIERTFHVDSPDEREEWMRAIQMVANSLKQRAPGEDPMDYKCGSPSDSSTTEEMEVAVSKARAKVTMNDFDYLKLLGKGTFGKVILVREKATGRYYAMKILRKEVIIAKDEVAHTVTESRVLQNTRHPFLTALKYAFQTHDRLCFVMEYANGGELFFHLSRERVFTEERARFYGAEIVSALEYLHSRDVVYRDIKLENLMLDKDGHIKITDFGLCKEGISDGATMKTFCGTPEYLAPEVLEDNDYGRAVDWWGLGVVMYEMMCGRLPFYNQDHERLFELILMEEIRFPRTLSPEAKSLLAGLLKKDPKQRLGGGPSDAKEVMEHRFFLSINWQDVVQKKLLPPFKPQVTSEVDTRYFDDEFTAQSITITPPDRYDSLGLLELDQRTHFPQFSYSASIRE

On to `c1ccc(-c2cn3ccnc3nc2-c2ccc(CN3CCC(c4cnc5ccccc5n4)CC3)cc2)cc1` [Example 10.0, 2-{1-[4-(6-phenyl-imidazo[1,2-a]pyrimidin-7-yl)-benzyl]-piperidine-4-yl}-quinoxaline], for which the half-maximal inhibitory concentration (IC50) in series [1] stood at 0.004 µM; in series [2], 0.009 µM.

Consider `Cc1nc2nc(-c3ccc(CN4CCC(n5ncc6c(N)ncnc65)CC4)cc3)c(-c3ccccc3)cn2n1` [Example 22.0, 1-{1-[4-(2-methyl-6-phenyl-[1,2,4]-triazolo[1,5-a]pyrimidin-5-yl)benzyl]-piperidin-4-yl}-1H-pyrazolo[3,4-d]pyrimidin-4-ylamine], for which the 50% inhibitory concentration (IC50) turned out to be 0.288 µM in series [1] and 0.417 µM in series [2].

Take `Cc1cccc(-c2nc(C3CN(Cc4ccc(-c5nc6nc(C)cn6c(NC(C)C)c5-c5ccccc5)cc4)C3)n[nH]2)n1` [Example 65.0, isopropyl-(2-methyl-6-phenyl-7-{4-{3-[5-(6-methylpyridine-2-yl)-1H-[1,2,4]triazole-3-yl)-azetidine-1-ylmethyl]-phenyl}-imidazo[1,2-a]pyrimidin-5-yl)-amine]: the half-maximal inhibitory concentration (IC50) in series [1] is 0.033 µM; in series [2], 0.036 µM.

As for `Cc1cccc(-c2nc(C3CN(Cc4ccc(-c5nc6nc(C(C)C)nn6cc5-c5ccccc5)cc4)C3)n[nH]2)n1` [Example 31.0, 2-isopropyl-5-(4-{3-[5-(6-methyl-pyridine-2-yl)-1H-[1,2,4]triazolo-3-yl]-azetidine-1-ylmethyl}-phenyl)-6-phenyl-[1,2,4]triazolo[1,5-a]pyrimidine], the figures for the half-inhibitory concentration (IC50) in series [1] and in series [2] were 0.07 µM and 0.014 µM, respectively.

With `COC(=O)c1cnn2cc(-c3ccc(F)cc3F)c(-c3ccc(CN4CC(c5n[nH]c(-c6ccccn6)n5)C4)cc3)nc12` [Example 32.0, 6-(2,4-difluorophenyl)-5-(4-{3-[5-(pyridine-2-yl)-1H-[1,2,4]triazole-3-yl]-azetidine-1-ylmethyl}-phenyl)-pyrazolo[1,5-a]pyrimidine-3-carboxylic acid methyl ester], the results for the IC50 in series [1] and in series [2] were 0.007 µM and 0.214 µM, respectively.

For the molecule `Cc1cccc(-c2nc(C3CN(Cc4ccc(-c5nc6nc(C7CC7)nn6cc5-c5ccccc5)cc4)C3)n[nH]2)n1` [Example 41.0, 2-cyclopropyl-5-(4-{3-[5-(6-methylpyridine-2-yl)-1H-[1,2,4]triazole-3-yl]-azetidine-1-ylmethyl}-phenyl)-6-phenyl-[1,2,4]triazolo[1,5-a]pyrimidine], the 50% inhibitory concentration (IC50) in series [1] and in series [2] was 0.01 µM throughout.

Take `COc1nn2cc(-c3c(F)cccc3F)c(-c3ccc(CN4CC(c5n[nH]c(-c6cccc(C)n6)n5)C4)cc3)nc2c1CO` [Example 63.1]: the figures for the half-inhibitory concentration (IC50) in series [1] and in series [2] were 0.008 µM and 0.034 µM, respectively.

On to `CNc1c(-c2ccccc2)c(-c2ccc(CN3CC(c4n[nH]c(-c5ccccn5)n4)C3)cc2)nc2nc(-c3ccccn3)nn12` [Example 67.0], for which the figures for the IC50 in series [1] and in series [2] were 0.029 µM and 0.145 µM, respectively.

As for `N#Cc1ccc2nc(C3CCN(Cc4ccc(-c5nc6nccn6cc5-c5ccccc5)cc4)CC3)[nH]c2c1` [Example 9.0, 2-{1-[4-(6-Phenyl-imidazo[1,2-a]pyrimidin-7-yl)-benzyl]-piperidin-4-yl}-3H-benzimidazole-5-carbonitrile], the results for the IC50 in series [1] and in series [2] were 0.083 µM and 0.426 µM, respectively.

For the molecule `c1ccc(-c2cn3ccnc3nc2-c2ccc(CN3CC(c4nnc(-c5ccccn5)[nH]4)C3)cc2)cc1` [Example 1.0, 6-phenyl-7-(4-{[3-(5-pyridin-2-yl-1,2,4-triazol-3-yl)azetidin-1-yl]methyl}phenyl)imidazo[1,2-a]pyrimidine], the IC50 in series [1] was under 0.05 µM; in series [2], under 0.5 µM.

Take `Fc1ccc(-c2cn3ccnc3nc2-c2ccc(CN3CCC(c4n[nH]c(-c5ccccn5)n4)CC3)cc2)cc1` [Example 52.1, 6-(4-fluorophenyl)-7-{4-[4-(5-pyridine-2-yl)-1H-[1,2,4]triazole-3-yl)-piperidine-1-ylmethyl)-phenyl}-imidazo[1,2-a]pyrimidine formiate]: the IC50 turned out to be 0.008 µM in series [1] and 0.032 µM in series [2].

`Fc1cnc2nc(-c3ccc(CN4CC(c5nnc(-c6ccccn6)[nH]5)C4)cc3)c(-c3ccccc3)cn12` [Example 4.0, 3-fluoro-6-phenyl-7-(4-{[3-(5-pyridin-2-yl-1,2,4-triazol-3-yl)azetidin-1-yl]methyl}phenyl)imidazo[1,2-a]pyrimidine]: the 50% inhibitory concentration (IC50) in series [1] and in series [2] was under 0.05 µM each time.

In turn, `Cc1nc2nc(-c3ccc(CN4CC(c5n[nH]c(-c6ccccn6)n5)C4)cc3)c(-c3ccccc3)c(NC(C)C)n2n1` [Example 45.2, isopropyl-(2-methyl-6-phenyl-5-{4-[3-(5-pyridin-2-yl-1H-[1,2,4]triazol-3-yl)-azetidin-1-ylmethyl]-phenyl}-[1,2,4]triazolo[1,5-a]pyrimidin-7-yl)-amine] displayed a melting point of 176.8 °C.

As for `CNc1c(-c2ccccc2)c(-c2ccc(CN3CC(c4n[nH]c(-c5ccccn5)n4)C3)cc2)nc2ncc(Br)n12` [Example 59.0, (3-bromo-6-phenyl-7-{4-{3-[5-(pyridine-2-yl)-1H-[1,2,4]triazole-3-yl)-azetidine-1-ylmethyl]-phenyl}-imidazo[1,2-a]pyrimidin-5-yl)-methylamine], the IC50 in series [1] is 0.042 µM; in series [2], 0.128 µM.

As to `OCc1cn2cc(-c3ccccc3)c(-c3ccc(CN4CC(c5n[nH]c(-c6ccccn6)n5)C4)cc3)nc2n1` [Example 75.0], the IC50 amounted to 0.072 µM in series [1] and 0.124 µM in series [2].

Take `Fc1ccc(-c2cn3ccnc3nc2-c2ccc(CN3CC(c4n[nH]c(-c5ccccn5)n4)C3)cc2)cc1` [Example 33.0, 6-(4-fluorophenyl)-7-{4-[3-(5-pyridine-2-yl-1H-[1,2,4]triazole-3-yl]-azetidine-1-ylmethyl]-phenyl}-imidazo[1,2-a]pyrimidine]: the values for the half-maximal inhibitory concentration (IC50) in series [1] and in series [2] were 0.026 µM and 0.253 µM, respectively.

With `c1ccc(-c2cn3ccnc3nc2-c2ccc(CN3CCC(c4nc5ccncc5[nH]4)CC3)cc2)cc1` [Example 6.0, 2-{1-[4-(6-phenyl-imidazo[1,2-a]pyrimidin-7-yl)-benzyl]-piperidin-4-yl}-3H-imidazo[4,5-c]pyridine], the values for the IC50 in series [1] and in series [2] were 0.157 µM and 1.22 µM, respectively.

Turning to `COc1nn2cc(-c3c(F)cccc3F)c(-c3ccc(CN4CCC(c5n[nH]c(-c6ccccn6)n5)CC4)cc3)nc2c1CO` [Example 63.3, (6-(2,6-difluorophenyl)-2-methoxy-5-{4-[4-(5-pyridine-2-yl-1H-[1,2,4]triazole-3-yl)-piperidine-1-ylmethyl]-phenyl}-pyrazolo[1,5-a]pyrimidin-3-yl)-methanol], the results for the 50% inhibitory concentration (IC50) in series [1] and in series [2] were 0.01 µM and 0.097 µM, respectively.

In the case of `c1ccc(-c2cn3ccnc3nc2-c2ccc(CN3CCC(c4nc5cccnc5[nH]4)CC3)cc2)cc1` [Example 7.0, 2-{1-[4-(6-phenyl-imidazo[1,2-a]pyrimidin-7-yl)-benzyl]-piperidin-4-yl}-3H-imidazo[4,5-b]pyridine], the concentration for half-maximal inhibition (IC50) in series [1] turned out to be 0.056 µM; in series [2], 0.607 µM.

Turning to `Cc1cccc(-c2nc(C3CN(Cc4ccc(-c5nc6nc(-c7ccccn7)nn6c(NC(C)C)c5-c5ccccc5)cc4)C3)n[nH]2)n1` [Example 69.0, isopropyl-(6-phenyl-2-pyridine-2-yl-5-{4-[3-[5-(6-methylpyridine-2-yl)-1H-[1,2,4]triazole-3-yl)-azetidine-1-ylmethyl]-phenyl}-[1,2,4]triazolo[1,5-a]pyrimidin-7-yl)-amine], the IC50 was 0.014 µM in series [1] and 0.016 µM in series [2].

For `Fc1ccc(-c2cn3nc(C4CC4)nc3nc2-c2ccc(CN3CCC(c4n[nH]c(-c5ccccn5)n4)CC3)cc2)cc1` [Example 51.1, 2-cyclopropyl-6-(4-fluorophenyl)-5-{4-[4-(5-pyridine-2-yl-1H-[1,2,4]triazole-3-yl)-piperidine-1-ylmethyl]-phenyl}-[1,2,4]triazolo[1,5-a]pyrimidine], the figures for the concentration for half-maximal inhibition (IC50) in series [1] and in series [2] were 0.032 µM and 0.069 µM, respectively.

Regarding `CC(C)c1nc2nc(-c3ccc(CN4CCC(c5cnc6ccccc6n5)CC4)cc3)c(-c3ccccc3)cn2n1` [Example 30.0, 2-{1-[4-(2-isopropyl-6-phenyl-[1,2,4]triazolo[1,5-a]pyrimidin-5-yl)benzyl]-piperidine-4-yl}-quinoxaline], the IC50 in series [1] was found to be 6.7 µM; in series [2] it was 0.509 µM.

In the case of `Cc1cccc(-c2nc(C3CCN(Cc4ccc(-c5nc6nccn6cc5-c5ccccc5F)cc4)CC3)n[nH]2)n1` [Example 54.0, 6-(2-fluorophenyl)-7-(4-{4-[5-(6-methylpyridine-2-yl)-1H-[1,2,4]triazole-3-yl]-piperidine-1-ylmethyl}-phenyl)-imidazo[1,2-a]pyrimidine], the figures for the half-maximal inhibitory concentration (IC50) in series [1] and in series [2] were 0.003 µM and 0.017 µM, respectively.

One may read the IC50 as the midpoint of a concentration-inhibition curve. The term melting point denotes the temperature of the solid-liquid transition.
